Here are results for one compound from patent US11987542B2, “Co-crystal of sorafenib derivatives and process for preparation thereof” (EicOsis, LLC, priority 2018, dated 2024).

What all share (assay type): biochemical
The target in one assay is T1, Rat sEH (Rattus norvegicus, UniProt P80299).
T1 sequence (P80299 1-554): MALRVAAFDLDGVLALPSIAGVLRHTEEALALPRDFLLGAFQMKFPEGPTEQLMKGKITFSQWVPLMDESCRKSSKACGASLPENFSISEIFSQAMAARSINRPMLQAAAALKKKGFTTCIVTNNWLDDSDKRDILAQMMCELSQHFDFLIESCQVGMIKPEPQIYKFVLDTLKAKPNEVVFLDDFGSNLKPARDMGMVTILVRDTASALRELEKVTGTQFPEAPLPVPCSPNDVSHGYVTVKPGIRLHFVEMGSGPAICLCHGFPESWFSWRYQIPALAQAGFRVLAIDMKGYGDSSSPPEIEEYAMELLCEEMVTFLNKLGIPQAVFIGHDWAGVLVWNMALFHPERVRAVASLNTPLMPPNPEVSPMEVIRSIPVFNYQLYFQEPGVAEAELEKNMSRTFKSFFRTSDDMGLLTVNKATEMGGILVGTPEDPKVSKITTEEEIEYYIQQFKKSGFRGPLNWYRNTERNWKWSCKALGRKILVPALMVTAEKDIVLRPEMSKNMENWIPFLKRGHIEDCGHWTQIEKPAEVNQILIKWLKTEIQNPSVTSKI
As to the kind of experiment: sEH inhibition, fluorescent assay.

The next assay addresses T2, Sheep sEH (Ovis aries, UniProt A0ACI6PZ20).
T2 sequence (A0ACI6PZ20 1-549): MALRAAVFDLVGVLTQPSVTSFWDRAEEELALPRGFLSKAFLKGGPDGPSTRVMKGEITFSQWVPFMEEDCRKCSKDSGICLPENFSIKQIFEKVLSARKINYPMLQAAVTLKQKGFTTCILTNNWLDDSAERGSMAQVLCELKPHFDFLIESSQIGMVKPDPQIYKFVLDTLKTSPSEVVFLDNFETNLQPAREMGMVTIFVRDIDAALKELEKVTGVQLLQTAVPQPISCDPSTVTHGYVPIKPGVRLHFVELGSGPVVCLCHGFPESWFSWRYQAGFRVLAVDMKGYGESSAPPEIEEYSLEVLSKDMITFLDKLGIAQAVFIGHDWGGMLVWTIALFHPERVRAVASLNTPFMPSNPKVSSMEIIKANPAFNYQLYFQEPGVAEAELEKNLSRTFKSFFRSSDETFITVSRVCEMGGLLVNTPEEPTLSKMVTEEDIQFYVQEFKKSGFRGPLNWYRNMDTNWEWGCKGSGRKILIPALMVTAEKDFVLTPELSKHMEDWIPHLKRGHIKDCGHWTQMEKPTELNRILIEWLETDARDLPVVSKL
As to the kind of experiment: sEH inhibition, radioactive assay and liver cytosolic preparation.

A further assay addresses T3, Pig sEH (Sus scrofa, UniProt Q6Q2C2).
T3 construct: from tissue
T3 sequence (Q6Q2C2 1-555): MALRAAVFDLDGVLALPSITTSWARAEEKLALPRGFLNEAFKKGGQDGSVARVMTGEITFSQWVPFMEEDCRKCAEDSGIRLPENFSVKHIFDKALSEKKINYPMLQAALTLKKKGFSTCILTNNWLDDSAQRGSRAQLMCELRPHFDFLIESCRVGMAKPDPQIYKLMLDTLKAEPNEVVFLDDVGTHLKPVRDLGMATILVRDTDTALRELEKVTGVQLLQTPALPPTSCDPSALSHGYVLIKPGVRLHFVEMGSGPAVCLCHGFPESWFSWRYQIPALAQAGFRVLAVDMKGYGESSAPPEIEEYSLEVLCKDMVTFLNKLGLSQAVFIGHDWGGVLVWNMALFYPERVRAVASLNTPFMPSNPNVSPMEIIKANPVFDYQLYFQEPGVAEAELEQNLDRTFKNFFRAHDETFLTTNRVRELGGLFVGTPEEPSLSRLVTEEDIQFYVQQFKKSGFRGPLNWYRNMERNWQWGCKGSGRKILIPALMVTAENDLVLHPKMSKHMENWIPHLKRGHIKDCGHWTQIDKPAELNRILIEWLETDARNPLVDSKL
The assay is described as above.

Regarding `O=C(Nc1ccc(OC(F)(F)F)cc1)N[C@H]1CC[C@H](Oc2ccc(C(=O)O)cc2)CC1` [EC1728, trans-4-{4-[3-(4-trifluoromethoxy-phenyl)-ureido]-cyclohexyloxy}-benzoic acid], the IC50 on Rat sEH stood at 16 nM; at Sheep sEH, 6 nM; on Pig sEH, 29 nM.
